Experimental data: US20250163002A1, “FUSED QUINONOXIME IMIDAZOLE, ONIUM DERIVATIVES THEREOF, PREPARATION AND USE THEREOF” (SHANGHAI JIAO TONG UNIVERSITY, priority 2022, published 2025)

Key:
[1] = test system: A549; test: In vitro inhibition test for cancer cell proliferation (MTT), A549; format: cell-based; conditions: 24 h or 48 h after addition, unit inferred
[2] = test system: HeLa; test: In vitro inhibition test for cancer cell proliferation (MTT), HeLa; format: cell-based; conditions: 24 h or 48 h after addition, unit inferred
[3] = test system: MCF-7; test: In vitro inhibition test for cancer cell proliferation (MTT), MCF-7; format: cell-based; conditions: 24 h or 48 h after addition, unit inferred
[4] = test system: L929; test: In vitro cell proliferation inhibition test (MTT), L929; format: cell-based; conditions: 24 h or 48 h after addition, unit inferred
[5] = test system: non-small cell lung cancer cell H460; test: In vitro proliferation inhibition, H460; format: cell-based; conditions: unit inferred
Protocol: (§1) Test method: pancreatic cancer cells CFPAC-1 were cultured in a Dalbeco-improved Eagle medium with the addition of 10% FBS and 5% double-antibody. CFPAC-1 cancer cells were inoculated into a 96-well plate for incubation for 24 h; in the following day, test compounds having various concentrations of (100, 20, 10, 1, 0.1, 0.01, and 0.001 μM) and positive control agents were added per well; corresponding volume of fresh medium was added to blank control. After addition for 24 h or 48 h, cell proliferation was evaluated by chromogenic reaction of MTT formazan.
(§2) In addition, compounds (I), (II), (III), and (IV) of the present invention have good inhibition activity against the proliferation of other cancer cells, including non-small cell lung cancer cell (H460, H1299), liver tumor cell (HepG2), rectal cancer cell (HT29), leukemia cell (CCRF-CEM), prostate cancer cell (PC-3), ovarian carcinoma cell (SKOV-3), melanoma cell (A375), myeloma cell (RPMI-8226), esophageal carcinoma cell (TE-1), pancreatic cancer cell (CFPAC-1, PANC-1, SW1990, ASPC-1, and BXPC-3), bladder cancer cell (5637), and gastric cancer cell (KATO-III).

[6] = test system: non-small cell lung cancer cell H1299; test: In vitro proliferation inhibition, H1299; format: cell-based; conditions: unit inferred
Protocol: as §1, §2

[7] = test system: liver tumor cell HepG2; test: In vitro proliferation inhibition, HepG2; format: cell-based; conditions: unit inferred
Protocol: as §1, §2

[8] = test system: rectal cancer cell HT29; test: In vitro proliferation inhibition, HT29; format: cell-based; conditions: unit inferred
Protocol: as §1, §2

[9] = test system: leukemia cell CCRF-CEM; test: In vitro proliferation inhibition, CCRF-CEM; format: cell-based; conditions: unit inferred
Protocol: as §1, §2

[10] = test system: prostate cancer cell PC-3; test: In vitro proliferation inhibition, PC-3; format: cell-based; conditions: unit inferred
Protocol: as §1, §2

[11] = test system: ovarian carcinoma cell SKOV-3; test: In vitro proliferation inhibition, SKOV-3; format: cell-based; conditions: unit inferred
Protocol: as §1, §2

[12] = test system: melanoma cell A375; test: In vitro proliferation inhibition, A375; format: cell-based; conditions: unit inferred
Protocol: as §1, §2

[13] = test system: myeloma cell RPMI-8226; test: In vitro proliferation inhibition, RPMI-8226; format: cell-based; conditions: unit inferred
Protocol: as §1, §2

[14] = test system: esophageal carcinoma cell TE-1; test: In vitro proliferation inhibition, TE-1; format: cell-based; conditions: unit inferred
Protocol: as §1, §2

[15] = test system: pancreatic cancer cells CFPAC-1; test: In vitro proliferation inhibition, CFPAC-1; format: cell-based; conditions: unit inferred
Protocol: as §1, §2

[16] = test system: pancreatic cancer cell PANC-1; test: In vitro proliferation inhibition, PANC-1; format: cell-based; conditions: unit inferred
Protocol: as §1, §2

[17] = test system: pancreatic cancer cell SW1990; test: In vitro proliferation inhibition, SW1990; format: cell-based; conditions: unit inferred
Protocol: as §1, §2

[18] = test system: pancreatic cancer cell ASPC-1; test: In vitro proliferation inhibition, ASPC-1; format: cell-based; conditions: unit inferred
Protocol: as §1, §2

[19] = test system: pancreatic cancer cell BXPC-3; test: In vitro proliferation inhibition, BXPC-3; format: cell-based; conditions: unit inferred
Protocol: as §1, §2

[20] = test system: bladder cancer cell 5637; test: In vitro proliferation inhibition, 5637; format: cell-based; conditions: unit inferred
Protocol: as §1, §2

[21] = test system: gastric cancer cell KATO-III; test: In vitro proliferation inhibition, KATO-III; format: cell-based; conditions: unit inferred
Protocol: as §1, §2

[22] = test system: CFPAC-1 pancreatic cancer cells; test: In vivo inhibition test of cancer cell proliferation, CFPAC-1 transplant; parameters: species or system Balb/c naked mouse; conditions: 7 mg/kg, once every other three days, 7 times; gross tumor volume
Protocol: Test method: 3×10^7 CFPAC-1 pancreatic cancer cells were transplanted to subcutaneous tissues of armpit of a Balb/c naked mouse; administration was conducted when the tumor grew to 50-100 mm^3, 100-200 mm^3, and greater than 200 mm^3; the mouse was administered once every other three days, 7 times in total, and 7 mg/kg each time. Normal saline was injected in the control group. Tumor length and diameter were measured by calipers and weight of the moue was weighed until the next day of the final administration. Gross tumor volume was calculated by the following equation:
gross tumor volume (mm^3)=½×[short diameter (mm)]^2×long diameter (mm)

[23] = Compound toxicity test, body weight changes; format: in vivo, balb/c mice; conditions: tail intravenous injection, 5 mg/kg every day for 7 consecutive days
Protocol: Test method: the compounds 121, 123, 124, 125, 128, 132, 137, 138, 139, 140, 143, 144, 145, 146, and 147 in the examples of the present invention were administered every day via tail intravenous injection at a dose of 5 mg/kg for 7 consecutive days, and then body weight changes of the balb/c mice were monitored.

Molecule	IC50 [1] [nM]	IC50 [2] [nM]	IC50 [3] [nM]	IC50 [4] [nM]	IC50 [5] [nM]	IC50 [6] [nM]	IC50 [7] [nM]	IC50 [8] [nM]	IC50 [9] [nM]	IC50 [10] [nM]	IC50 [11] [nM]	IC50 [12] [nM]	IC50 [13] [nM]	IC50 [14] [nM]	IC50 [15] [nM]	IC50 [16] [nM]	IC50 [17] [nM]	IC50 [18] [nM]	IC50 [19] [nM]	IC50 [20] [nM]	other results
CCON=C1c2ccccc2C(=O)c2c1[n+](C)cn2C.[I-] [Compound 124, (E) and (Z)-4-(ethoxylimino)-1,3-dimethyl-9-oxo-4,9-dihydro-1H-naphthol[2,3-d]imidazole-3-iodide]	9	11300	3300	4600	340	450	20	7900	220	23100	100	5650	99200	80	9	890	9	8	6	60	IC50 [21]: 20 nM; proliferation inhibition activity / inhibition ratio [22]: 100%
Nc1ccn([C@@H]2O[C@H](CO)[C@@H](O)C2(F)F)c(=O)n1 [gemcitabine]																					condition and body weight changes of the mice [23]: obviously reduced weight and are dispirited
(E) and (Z)-4-(butoxyimino)-1,3-dimethyl-9-oxo-4,9-dihydro-1H-naphthol[2,3-d] [Compound 128]	4	4800	2900	6500	140	170	20	9800	530	8800	80	1660	78900	9	8	100	9	8	6	10	IC50 [21]: 9 nM; proliferation inhibition activity / inhibition ratio [22]: 100%
CON=C1c2ccccc2C(=O)c2c1[n+](C)cn2C.[I-] [Compound 123, (E) and (Z)-4-(methoxylimino)-1,3-dimethyl-9-oxo-4,9-dihydro-1H-naphthol[2,3-d]imidazole-3-iodide]	7	23000	1800	3800	220	430	10	6700	120	13500	90	4650	90900	70	7	760	8	7	4	50	IC50 [21]: 10 nM; proliferation inhibition activity / inhibition ratio [22]: 100%
